The source of these data is US20130252935A1, “Monobactams” (PFIZER INC., priority 2010, published 2013).

Common to all, as to assay type: cell-based
The test system of experiment [1] is Klebsiella pneumoniae 1000-02. Put plainly: minimum inhibitory concentration (MIC) testing according to CLSI guidelines, Klebsiella pneumoniae. As to conditions: ciprofloxacin-resistant, ESBL-expressing clinical isolate 1000-02, overnight incubation, lower of duplicate values; for MIC: Klebsiella pneumoniae, read-out: AB-MBT: Klebsiella pneumoniae 1000-02: MIC (MstRcnt). The method in brief:
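MIC by CLSI broth dilution with 2-fold concentration steps and overnight incubation; lowest concentration visibly inhibiting growth versus drug-free control. Ciprofloxacin-resistant, ESBL-expressing clinical isolate 1000-02. Run in duplicate, lower value reported when within 2-fold, with QC organisms and reference compounds per run.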

The test system of experiment [2] is Pseudomonas aeruginosa UC-12120. Put plainly: minimum inhibitory concentration (MIC) testing according to CLSI guidelines, Pseudomonas aeruginosa. As to conditions: UC-12120, wild-type, labeled as 1091-05, overnight incubation, lower of duplicate values; for MIC: Pseudomonas aeruginosa, UC12120, read-out: AB-MBT: Pseudomonas aeruginosa 1091-05: MIC (MstRcn). In outline: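 Broth dilution MIC per CLSI guidelines against wild-type P. aeruginosa UC-12120 (1091-05), using 2-fold drug dilutions and overnight incubation with visual reading of lowest growth-inhibiting concentration. Tested in duplicate; lower value reported when within 2-fold, with control organisms and reference compounds for quality control.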

Experiment [3] has as its system Acinetobacter baumannii/haemolyticus AB-3167. The experiment is described as follows: minimum inhibitory concentration (MIC) testing according to CLSI guidelines, Acinetobacter. As to conditions: multidrug-resistant clinical isolate AB-3167, overnight incubation, lower of duplicate values; for MIC: Acinetobacter baumannii, read-out: AB-MBT: Acinetobacter baumanii AB-3167: MIC (MstRcnt). In outline: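 Broth dilution MIC per CLSI M7-A8/M100-S20 against multidrug-resistant clinical isolate AB-3167, using 2-fold drug dilutions and overnight incubation; MIC is the lowest concentration without visible growth. Duplicates within 2-fold reported as the lower value, with control strains and reference compounds in range.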

≈ marks a conversion by molar mass, not a printed value.

As a reminder, the MIC is the lowest concentration found to suppress growth. Consider `CC(C)(O/N=C(\C(=O)N[C@@H]1C(=O)N(S(=O)(=O)O)[C@@H]1CNC(=O)c1ccnc(-c2cc(=O)c(O)c[nH]2)n1)c1csc(N)n1)C(=O)O` [Example 22, 2-({[(1Z)-1-(2-amino-1,3-thiazol-4-yl)-2-({(2R,3S)-2-[({[2-(5-hydroxy-4-oxo-1,4-dihydropyridin-2-yl)pyrimidin-4-yl]carbonyl}amino)methyl]-4-oxo-1-sulfoazetidin-3-yl}amino)-2-oxoethylidene]amino}oxy)-2-methylpropanoic acid], for which the MIC in experiment [1] was found to be 32 µg/mL (≈ 48.1 µM); in experiment [2], 4 µg/mL (≈ 6.01 µM); in experiment [3] it was 16 µg/mL (≈ 24 µM).

As for `Nc1nc(/C(=N/O[C@@H](Cc2ccccc2)C(=O)O)C(=O)N[C@@H]2C(=O)N(S(=O)(=O)O)[C@@H]2CNC(=O)NCc2cc(=O)c(O)cn2O)cs1` [Example 32, (2S)-2-({[(1Z)-1-(2-amino-1,3-thiazol-4-yl)-2-({(2R,3S)-2-[({[(1,5-dihydroxy-4-oxo-1,4-dihydropyridin-2-yl)methyl]carbamoyl}amino)methyl]-4-oxo-1-sulfoazetidin-3-yl}amino)-2-oxoethylidene]amino}oxy)-3-phenylpropanoic acid], the MIC in experiment [1], in experiment [2] and in experiment [3] was 1 µg/mL (≈ 1.44 µM) throughout.

`Nc1nc(/C(=N/OC2(C(=O)O)CCCC2)C(=O)N[C@@H]2C(=O)N(S(=O)(=O)O)[C@@H]2CNC(=O)c2cc(=O)c(O)cn2O)cs1` [Example 66, 1-({[(1Z)-1-(2-amino-1,3-thiazol-4-yl)-2-{[(2R,3S)-2-({[(1,5-dihydroxy-4-oxo-1,4-dihydropyridin-2-yl)carbonyl]amino}methyl)-4-oxo-1-sulfoazetidin-3-yl]amino}-2-oxoethylidene]amino}oxy)cyclopentanecarboxylic acid]: the MIC in experiment [1] was 0.125 µg/mL (≈ 0.199 µM); in experiment [2] it was 0.5 µg/mL (≈ 0.794 µM); in experiment [3] it was 0.5 µg/mL (≈ 0.794 µM).

For the molecule `CC(C)(O/N=C(\C(=O)N[C@@H]1C(=O)N(S(=O)(=O)O)[C@@H]1CNC(=O)C(=O)NCC1=CC(=O)C(O)=CC1O)c1csc(N)n1)C(=O)O` (stereo partly drawn) [Example 41, 2-({[(1Z)-1-(2-amino-1,3-thiazol-4-yl)-2-{[(2R,3S)-2-({[{[(4,6-dihydroxy-3-oxocyclohexa-1,4-dien-1-yl)methyl]amino}(oxo)acetyl]amino}methyl)-4-oxo-1-sulfoazetidin-3-yl]amino}-2-oxoethylidene]amino}oxy)-2-methylpropanoic acid], the MIC was found to be 0.5 µg/mL (≈ 0.758 µM) in experiment [1], 0.06 µg/mL (≈ 0.091 µM) in experiment [2] and 0.25 µg/mL (≈ 0.379 µM) in experiment [3].

In the case of `CC(C)(O/N=C(\C(=O)N[C@@H]1C(=O)N(S(=O)(=O)[O-])[C@@H]1CNC(=O)c1cc(=O)c(O)cn1O)c1csc(N)n1)C(=O)[O-].[Na+].[Na+]` [Example 11, 2-({[(1Z)-1-(2-amino-1,3-thiazol-4-yl)-2-{[(2R,3S)-2-({[(1,5-dihydroxy-4-oxo-1,4-dihydropyridin-2-yl)carbonyl]amino}methyl)-4-oxo-1-sulfoazetidin-3-yl]amino}-2-oxoethylidene]amino}oxy)-2-methylpropanoic acid, disodium salt], the MIC in experiment [1] amounted to 0.06 µg/mL; in experiment [2], 0.5 µg/mL; in experiment [3], 1 µg/mL.

As for `CC(C)(O/N=C(\C(=O)N[C@@H]1C(=O)N(S(=O)(=O)O)[C@@H]1CNC(=O)Nc1cc(=O)c(O)c[nH]1)c1csc(N)n1)C(=O)O` [Example 57, 2-({[(1Z)-1-(2-amino-1,3-thiazol-4-yl)-2-{[(2R,3S)-2-({[(5-hydroxy-4-oxo-1,4-dihydropyridin-2-yl)carbamoyl]amino}methyl)-4-oxo-1-sulfoazetidin-3-yl]amino}-2-oxoethylidene]amino}oxy)-2-methylpropanoic acid], the values for the minimum inhibitory concentration (MIC) in experiment [1], in experiment [2] and in experiment [3] were 4 µg/mL (≈ 6.64 µM), 2 µg/mL (≈ 3.32 µM) and 1 µg/mL (≈ 1.66 µM), respectively.

Regarding `CC(C)(O/N=C(\C(=O)N[C@@H]1C(=O)N(S(=O)(=O)O)[C@@H]1CNC(=O)CNC(=O)c1cc(=O)c(O)cn1O)c1csc(N)n1)C(=O)O` [Example 36, 2-({[(1Z)-1-(2-amino-1,3-thiazol-4-yl)-2-({(2R,3S)-2-[({N-[(1,5-dihydroxy-4-oxo-1,4-dihydropyridin-2-yl)carbonyl]glycyl}amino)methyl]-4-oxo-1-sulfoazetidin-3-yl}amino)-2-oxoethylidene]amino}oxy)-2-methylpropanoic acid], the MIC in experiment [1] came out at 1 µg/mL (≈ 1.51 µM); in experiment [2], 0.125 µg/mL (≈ 0.189 µM); in experiment [3], 0.25 µg/mL (≈ 0.378 µM).

Consider `CC(C)(O/N=C(\C(=O)N[C@@H]1C(=O)N(S(=O)(=O)O)[C@@H]1CNC(=O)Cc1ccc(NC(=O)c2cc(=O)c(O)cn2O)cc1)c1csc(N)n1)C(=O)O` [Example 45, 2-({[(1Z)-1-(2-amino-1,3-thiazol-4-yl)-2-{[(2R,3S)-2-({[(4-{[(1,5-dihydroxy-4-oxo-1,4-dihydropyridin-2-yl)carbonyl]amino}phenyl)acetyl]amino}methyl)-4-oxo-1-sulfoazetidin-3-yl]amino}-2-oxoethylidene]amino}oxy)-2-methylpropanoic acid], for which the MIC worked out at 4 µg/mL (≈ 5.43 µM) in experiment [1], 0.5 µg/mL (≈ 0.679 µM) in experiment [2] and 0.5 µg/mL (≈ 0.679 µM) in experiment [3].

Regarding `C[C@H](NC(=O)NCc1cc(=O)c(O)cn1O)C(=O)NC[C@@H]1[C@H](NC(=O)/C(=N\OC(C)(C)C(=O)O)c2csc(N)n2)C(=O)N1S(=O)(=O)O` [Example 55, 2-({[(1Z)-1-(2-amino-1,3-thiazol-4-yl)-2-{[(2R,3S)-2-{[(N-{[(1,5-dihydroxy-4-oxo-1,4-dihydropyridin-2-yl)methyl]carbamoyl}-L-alanyl)amino]methyl}-4-oxo-1-sulfoazetidin-3-yl]amino}-2-oxoethylidene]amino}oxy)-2-methylpropanoic acid], the MIC was 2 µg/mL (≈ 2.84 µM) in experiment [1], 0.25 µg/mL (≈ 0.355 µM) in experiment [2] and 0.5 µg/mL (≈ 0.711 µM) in experiment [3].

As for `CC(C)(O/N=C(\C(=O)N[C@@H]1C(=O)N(S(=O)(=O)O)[C@@H]1CNc1cc(C(=O)NCc2cc(=O)c(O)cn2O)ccn1)c1csc(N)n1)C(=O)O` [Example 50, 2-({[(1Z)-1-(2-amino-1,3-thiazol-4-yl)-2-{[(2R,3S)-2-{[(4-{[(1,5-dihydroxy-4-oxo-1,4-dihydropyridin-2-yl)methyl]carbamoyl}pyridin-2-yl)amino]methyl}-4-oxo-1-sulfoazetidin-3-yl]amino}-2-oxoethylidene]amino}oxy)-2-methylpropanoic acid], the results for the MIC in experiment [1], in experiment [2] and in experiment [3] were 0.5 µg/mL (≈ 0.705 µM), 0.125 µg/mL (≈ 0.176 µM) and 0.5 µg/mL (≈ 0.705 µM), respectively.

As for `CC(C)(O/N=C(\C(=O)N[C@@H]1C(=O)N(S(=O)(=O)[O-])[C@@H]1CNC(=O)c1cc(-c2cc(=O)c(O)cn2O)no1)c1csc(N)n1)C(=O)[O-].[Na+].[Na+]` [Example 15, 2-({[(1Z)-1-(2-amino-1,3-thiazol-4-yl)-2-({(2R,3S)-2-[({[3-(1,5-dihydroxy-4-oxo-1,4-dihydropyridin-2-yl)isoxazol-5-yl]carbonyl}amino)methyl]-4-oxo-1-sulfoazetidin-3-yl}amino)-2-oxoethylidene]amino}oxy)-2-methylpropanoic acid, bis sodium salt], the “AB-MBT: Klebsiella pneumoniae 1000-02: MIC (MstRcnt)” value in experiment [1] came out at 1.00 µg/mL. The “AB-MBT: Pseudomonas aeruginosa 1091-05: MIC (MstRcn)” value in experiment [2] was found to be 0.250 µg/mL. Moreover, the “AB-MBT: Acinetobacter baumanii AB-3167: MIC (MstRcnt)” value in experiment [3] worked out at 0.250 µg/mL.

As for `Nc1nc(/C(=N/OC2(C(=O)O)CCCC2)C(=O)N[C@@H]2C(=O)N(S(=O)(=O)O)[C@@H]2CNC(=O)NCc2cc(=O)c(O)cn2O)cs1` [Example 26, 1-({[(1Z)-1-(2-amino-1,3-thiazol-4-yl)-2-({(2R,3S)-2-[({[(1,5-dihydroxy-4-oxo-1,4-dihydropyridin-2-yl)methyl]carbamoyl}amino)methyl]-4-oxo-1-sulfoazetidin-3-yl}amino)-2-oxoethylidene]amino}oxy)cyclopentanecarboxylic acid], the minimum inhibitory concentration (MIC) in experiment [1] came to 0.125 µg/mL (≈ 0.19 µM); in experiment [2] it was 0.125 µg/mL (≈ 0.19 µM); in experiment [3] it was 0.25 µg/mL (≈ 0.38 µM).

Consider `CC(C)(O/N=C(\C(=O)N[C@@H]1C(=O)N(S(=O)(=O)O)[C@@H]1CNC(=O)c1cc(-c2cc(=O)c(O)c[nH]2)no1)c1csc(N)n1)C(=O)O` [Example 14, 2-({[(1Z)-1-(2-amino-1,3-thiazol-4-yl)-2-({(2R,3S)-2-[({[3-(5-hydroxy-4-oxo-1,4-dihydropyridin-2-yl)isoxazol-5-yl]carbonyl}amino)methyl]-4-oxo-1-sulfoazetidin-3-yl}amino)-2-oxoethylidene]amino}oxy)-2-methylpropanoic acid], for which the MIC in experiment [1] came out at 0.5 µg/mL (≈ 0.764 µM); in experiment [2] it was 1 µg/mL (≈ 1.53 µM); in experiment [3], 0.5 µg/mL (≈ 0.764 µM).

Consider `CC(C)(O/N=C(\C(=O)N[C@@H]1C(=O)N(S(=O)(=O)O)[C@@H]1CNC(=O)c1cc(=O)c(O)c[nH]1)c1csc(N)n1)C(=O)O` [Example 10, 2-({[(1Z)-1-(2-amino-1,3-thiazol-4-yl)-2-{[(2R,3S)-2-({[(5-hydroxy-4-oxo-1,4-dihydropyridin-2-yl)carbonyl]amino}methyl)-4-oxo-1-sulfoazetidin-3-yl]amino}-2-oxoethylidene]amino}oxy)-2-methylpropanoic acid], for which the minimum inhibitory concentration (MIC) in experiment [1] came to 0.5 µg/mL (≈ 0.851 µM); in experiment [2], 0.125 µg/mL (≈ 0.213 µM); in experiment [3], 0.25 µg/mL (≈ 0.425 µM).
